Measurements published in patent US12077503B2, “Substituted cyclic amides and their use as herbicides” (FMC CORPORATION, priority 2015, dated 2024).

Key:
Assay type in all cases: in vivo
[1] = system: barnyardgrass (Echinochloa crus-galli); experiment: Test G Pre-Emergence Protocol; conditions: Echinochloa crus-galli, pre-emergence, 312 h, evaluated after 13 days; for pest or weed control at 15.625 g/ha: 15.625 g ai/ha, read-out: Barnyard grass damage rating (100=total damage to plant; 0=no damage to plant); for pest or weed control at 62.5 g/ha: 62.5 g ai/ha, 100=total damage to plant, 0=no damage to plant, read-out: plant damage rating, Barnyardgrass; for pest or weed control at 250 g/ha: 250 g ai/ha, read-out: Barnyardgrass damage rating (100=total damage to plant; 0=no damage to plant)
Method: (§1) Seeds of corn (Zea mays), giant foxtail (Setaria faberi), barnyardgrass (Echinochloa crus-galli), ivy-leaved morning glory (Ipomoea hederacea), redroot pigweed (Amaranthus retroflexus) and velvetleaf (Abutilon theophrasti) were sown in standard soil in pots. After cultivation for one day under controlled conditions in a glasshouse (at 24/16° C., day/night; 14 hours light; 65% humidity), the plants were sprayed with an aqueous spray solution derived from the formulation of the technical active ingredient in acetone/water (50:50) solution containing 0.5% Tween 20 (polyoxyethylene sorbitan monolaurate, CAS RN 9005-64-5) to give a final dose of 15.625, 62.5 or 250 g/ha of test compound.
(§2) The test plants were then grown on under controlled conditions in a glasshouse (at 24/16° C., day/night; 14 hours light; 65% humidity) and watered twice daily. After 13 days the test was evaluated (100=total damage to plant; 0=no damage to plant). A dash (-) means no test result.

corn (Zea mays) [2] = experiment: Test G Pre-Emergence Protocol; conditions: Zea mays, pre-emergence, 312 h, evaluated after 13 days; for plant injury at 15.625 g/ha: 15.625 g ai/ha; for plant injury at 15.625 g/ha / plant injury at 250 g/ha: read-out: Corn damage rating (100=total damage to plant; 0=no damage to plant); for plant injury at 62.5 g/ha: 62.5 g ai/ha, 100=total damage to plant, 0=no damage to plant, read-out: plant damage rating, Corn; for plant injury at 250 g/ha: 250 g ai/ha
Method: as §1, §2

[3] = system: giant foxtail (Setaria faberi); experiment: Test G Pre-Emergence Protocol; conditions: Setaria faberi, pre-emergence, 312 h, evaluated after 13 days; for pest or weed control at 15.625 g/ha: 15.625 g ai/ha; for pest or weed control at 15.625 g/ha / pest or weed control at 250 g/ha: read-out: Foxtail, Giant damage rating (100=total damage to plant; 0=no damage to plant); for pest or weed control at 62.5 g/ha: 62.5 g ai/ha, 100=total damage to plant, 0=no damage to plant, read-out: plant damage rating, Foxtail, Giant; for pest or weed control at 250 g/ha: 250 g ai/ha
Method: as §1, §2

[4] = system: ivy-leaved morning glory (Ipomoea hederacea); experiment: Test G Pre-Emergence Protocol; conditions: Ipomoea, pre-emergence, 312 h, evaluated after 13 days; for pest or weed control at 15.625 g/ha: 15.625 g ai/ha, read-out: Morning-glory, Ivy-leaved damage rating (100=total damage to plant; 0=no damage to plant); for pest or weed control at 62.5 g/ha: 62.5 g ai/ha, 100=total damage to plant, 0=no damage to plant, read-out: plant damage rating, Morningglory, Ivy-leaved; for pest or weed control at 250 g/ha: 250 g ai/ha, read-out: Morningglory, Ivy-leaved damage rating (100=total damage to plant; 0=no damage to plant)
Method: as §1, §2

[5] = system: redroot pigweed (Amaranthus retroflexus); experiment: Test G Pre-Emergence Protocol; conditions: Amaranthus retroflexus, pre-emergence, 312 h, evaluated after 13 days; for pest or weed control at 15.625 g/ha: 15.625 g ai/ha; for pest or weed control at 15.625 g/ha / pest or weed control at 250 g/ha: read-out: Pigweed, Redroot damage rating (100=total damage to plant; 0=no damage to plant); for pest or weed control at 62.5 g/ha: 62.5 g ai/ha, 100=total damage to plant, 0=no damage to plant, read-out: plant damage rating, Pigweed, Redroot; for pest or weed control at 250 g/ha: 250 g ai/ha
Method: as §1, §2

[6] = system: velvetleaf (Abutilon theophrasti); experiment: Test G Pre-Emergence Protocol; conditions: Abutilon theophrasti, pre-emergence, 312 h, evaluated after 13 days; for pest or weed control at 15.625 g/ha: 15.625 g ai/ha; for pest or weed control at 15.625 g/ha / pest or weed control at 250 g/ha: read-out: Velvetleaf damage rating (100=total damage to plant; 0=no damage to plant); for pest or weed control at 62.5 g/ha: 62.5 g ai/ha, 100=total damage to plant, 0=no damage to plant, read-out: plant damage rating, Velvetleaf; for pest or weed control at 250 g/ha: 250 g ai/ha
Method: as §1, §2

[7] = system: barnyardgrass (Echinochloa crus-galli); experiment: Test G Post-Emergence Protocol; conditions: Echinochloa crus-galli, post-emergence, 312 h; for pest or weed control at 15.625 g/ha: 15.625 g ai/ha, evaluated after 13 days (100=total damage to plant; 0=no damage to plant), read-out: Barnyardgrass damage rating; for pest or weed control at 62.5 g/ha: 62.5 g ai/ha, read-out: Barnyardgrass damage rating (100=total damage to plant; 0=no damage to plant); for pest or weed control at 62.5 g/ha / pest or weed control at 250 g/ha: evaluated after 13 days; for pest or weed control at 250 g/ha: 250 g ai/ha, read-out: damage to plant, Barnyardgrass (100=total damage to plant; 0=no damage to plant)
Method: as §1, with “8 days” for “one day”
as §2

corn (Zea mays) [8] = experiment: Test G Post-Emergence Protocol; conditions: Zea mays, post-emergence, 312 h; for plant injury at 15.625 g/ha: 15.625 g ai/ha, evaluated after 13 days (100=total damage to plant; 0=no damage to plant), read-out: Corn damage rating; for plant injury at 62.5 g/ha: 62.5 g ai/ha, read-out: Corn damage rating (100=total damage to plant; 0=no damage to plant); for plant injury at 62.5 g/ha / plant injury at 250 g/ha: evaluated after 13 days; for plant injury at 250 g/ha: 250 g ai/ha, read-out: damage to plant, Corn (100=total damage to plant; 0=no damage to plant)
Method: as §1, with “8 days” for “one day”
as §2

[9] = system: giant foxtail (Setaria faberi); experiment: Test G Post-Emergence Protocol; conditions: Setaria faberi, post-emergence, 312 h; for pest or weed control at 15.625 g/ha: 15.625 g ai/ha, evaluated after 13 days (100=total damage to plant; 0=no damage to plant), read-out: Foxtail, Giant damage rating; for pest or weed control at 62.5 g/ha: 62.5 g ai/ha, read-out: Foxtail, Giant damage rating (100=total damage to plant; 0=no damage to plant); for pest or weed control at 62.5 g/ha / pest or weed control at 250 g/ha: evaluated after 13 days; for pest or weed control at 250 g/ha: 250 g ai/ha, read-out: damage to plant, Foxtail, Giant (100=total damage to plant; 0=no damage to plant)
Method: as §1, with “8 days” for “one day”
as §2

[10] = system: ivy-leaved morning glory (Ipomoea hederacea); experiment: Test G Post-Emergence Protocol; conditions: Ipomoea, post-emergence, 312 h; for pest or weed control at 15.625 g/ha: 15.625 g ai/ha, evaluated after 13 days (100=total damage to plant; 0=no damage to plant), read-out: Morningglory, Ivy-leaved damage rating; for pest or weed control at 62.5 g/ha: 62.5 g ai/ha, read-out: Morningglory, Ivy-leaved damage rating (100=total damage to plant; 0=no damage to plant); for pest or weed control at 62.5 g/ha / pest or weed control at 250 g/ha: evaluated after 13 days; for pest or weed control at 250 g/ha: 250 g ai/ha, read-out: damage to plant, Morningglory, Ivy-leaved (100=total damage to plant; 0=no damage to plant)
Method: as §1, with “8 days” for “one day”
as §2

[11] = system: redroot pigweed (Amaranthus retroflexus); experiment: Test G Post-Emergence Protocol; conditions: Amaranthus retroflexus, post-emergence, 312 h; for pest or weed control at 15.625 g/ha: 15.625 g ai/ha, evaluated after 13 days (100=total damage to plant; 0=no damage to plant), read-out: Pigweed, Redroot damage rating; for pest or weed control at 62.5 g/ha: 62.5 g ai/ha, read-out: Pigweed, Redroot damage rating (100=total damage to plant; 0=no damage to plant); for pest or weed control at 62.5 g/ha / pest or weed control at 250 g/ha: evaluated after 13 days; for pest or weed control at 250 g/ha: 250 g ai/ha, read-out: damage to plant, Pigweed, Redroot (100=total damage to plant; 0=no damage to plant)
Method: as §1, with “8 days” for “one day”
as §2

[12] = system: velvetleaf (Abutilon theophrasti); experiment: Test G Post-Emergence Protocol; conditions: Abutilon theophrasti, post-emergence, 312 h; for pest or weed control at 15.625 g/ha: 15.625 g ai/ha, evaluated after 13 days (100=total damage to plant; 0=no damage to plant), read-out: Velvetleaf damage rating; for pest or weed control at 62.5 g/ha: 62.5 g ai/ha, read-out: Velvetleaf damage rating (100=total damage to plant; 0=no damage to plant); for pest or weed control at 62.5 g/ha / pest or weed control at 250 g/ha: evaluated after 13 days; for pest or weed control at 250 g/ha: 250 g ai/ha, read-out: damage to plant, Velvetleaf (100=total damage to plant; 0=no damage to plant)
Method: as §1, with “8 days” for “one day”
as §2

Structure (SMILES)	pest or weed control at 15.625 g/ha [1]	pest or weed control at 62.5 g/ha [1]	pest or weed control at 250 g/ha [1]	plant injury at 15.625 g/ha (corn (Zea mays) [2])	plant injury at 62.5 g/ha (corn (Zea mays) [2])	plant injury at 250 g/ha (corn (Zea mays) [2])	pest or weed control at 15.625 g/ha [3]	pest or weed control at 62.5 g/ha [3]	pest or weed control at 250 g/ha [3]	pest or weed control at 15.625 g/ha [4]	pest or weed control at 62.5 g/ha [4]	pest or weed control at 250 g/ha [4]	pest or weed control at 15.625 g/ha [5]	pest or weed control at 62.5 g/ha [5]	pest or weed control at 250 g/ha [5]	pest or weed control at 15.625 g/ha [6]	pest or weed control at 62.5 g/ha [6]	pest or weed control at 250 g/ha [6]	pest or weed control at 15.625 g/ha [7]	pest or weed control at 62.5 g/ha [7]	also measured
CN1C[C@H](c2ccc(C(F)(F)F)cc2)[C@@H](C(=O)Nc2ccc(F)cc2[N+](=O)[O-])C1=O (racemic) [Compound 1425]	0%	40%	60%	0%	0%	0%	10%	80%	80%	0%	0%	0%	0%	0%	0%	0%	0%	0%	0%	20%	pest or weed control at 250 g/ha [7]: 20%; plant injury at 15.625 g/ha (corn (Zea mays) [8]): 10%; plant injury at 62.5 g/ha (corn (Zea mays) [8]): 10%; plant injury at 250 g/ha (corn (Zea mays) [8]): 10%; pest or weed control at 15.625 g/ha [9]: 10%; pest or weed control at 62.5 g/ha [9]: 40%; pest or weed control at 250 g/ha [9]: 50%; pest or weed control at 15.625 g/ha [10]: 0%; pest or weed control at 62.5 g/ha [10]: 0%; pest or weed control at 250 g/ha [10]: 0%; pest or weed control at 15.625 g/ha [11]: 20%; pest or weed control at 62.5 g/ha [11]: 30%; pest or weed control at 250 g/ha [11]: 40%; pest or weed control at 15.625 g/ha [12]: 0%; pest or weed control at 62.5 g/ha [12]: 0%; pest or weed control at 250 g/ha [12]: 0%
CN1C[C@H](c2ccc(C(F)(F)F)cc2)[C@@H](C(=O)Nc2ccc(C(F)(F)F)cc2F)C1=O (racemic) [Compound 1426]	0%	10%	20%	0%	0%	0%	0%	50%	70%	0%	0%	0%	0%	0%	0%	0%	0%	0%	0%	0%	pest or weed control at 250 g/ha [7]: 20%; plant injury at 15.625 g/ha (corn (Zea mays) [8]): 10%; plant injury at 62.5 g/ha (corn (Zea mays) [8]): 0%; plant injury at 250 g/ha (corn (Zea mays) [8]): 10%; pest or weed control at 15.625 g/ha [9]: 0%; pest or weed control at 62.5 g/ha [9]: 0%; pest or weed control at 250 g/ha [9]: 40%; pest or weed control at 15.625 g/ha [10]: 0%; pest or weed control at 62.5 g/ha [10]: 0%; pest or weed control at 250 g/ha [10]: 0%; pest or weed control at 15.625 g/ha [11]: 0%; pest or weed control at 62.5 g/ha [11]: 10%; pest or weed control at 250 g/ha [11]: 10%; pest or weed control at 15.625 g/ha [12]: 0%; pest or weed control at 62.5 g/ha [12]: 0%; pest or weed control at 250 g/ha [12]: 0%
